Several values for one entry are separate records, joined by “and”; a condition that tells them apart may be missing. Equal entries are not always repeated. Where two headings read alike, the source gives them in different places. No end group written: not given here.

The record followed here is US5340800A, “Peptide medicaments for the treatment of disease” (priority 1992, dated 1994).

The data set has as its system polymorphonuclear leukocyte adhesion to TNF activated endothelial cells. Type of data set: cell-based, human. The settings on record: for Average % Change of PMN Adhesion to TNF Activated ECs: average over PMN donors (# donors in parentheses). The gist of the method: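 Human leukocytes were isolated on Ficoll-Hypaque and labelled for 15 min with 111In-oxide or 51Cr. They were added to TNF-activated HUVEC monolayers (≤5th passage, fibronectin-coated, washed with RPMI/1% FCS) for 30 min at 37 °C, 5% CO2. Adherent radioactivity was counted in quadruplicate, with basal binding to non-activated endothelium as control.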

Turning to “IGWRNVTRLLVFATDDGFHFAGDGKLGAI [Peptide 4-29, NH2 --Ile--Gly--Trp--Arg--Asn--Val--Thr--Arg--Leu--Leu--Val--Phe--Ala--Thr--Asp--Asp--Gly--Phe--His--Phe--Ala--Gly--Asp--Gly--Lys--Leu--Gly--Ala--Ile--COOH]”, the “activity of the peptide after storage for different times at 4° C.” value was “maintained”; the “concentration of peak inhibitory activity in the PMN adhesion assay” value was 10^-5 to 10^-6 M and 10^-5 M; the “inhibitory activity in the PMN adhesion assay (in words)” value was “significant inhibitory activity”. Also, the “Average % Change of PMN Adhesion to TNF Activated ECs” value (“Average % Change of PMN Adhesion” below) (10^-4 M) was -30%. Further, under “10^-4 M, donor 108, peptide frozen”, the “Percent Change in PMN Adhesion to TNF Activated ECs” value (from here on “Percent Change in PMN Adhesion”) was -16%. Further, the “Percent Change in PMN Adhesion” value (10^-4 M, donor 272, peptide fresh (second line of donor 272 fresh, last line of table)) is reported as “+53%”. Besides, the “Average % Change of PMN Adhesion” value (10^-5 M) is -65%. In addition, the “Percent Change in PMN Adhesion” value (10^-5 M, donor 108, peptide frozen) is recorded as -63%. Where the note is “10^-6 M”, the “Average % Change of PMN Adhesion” value is on record as -48%. In addition, the “Percent Change in PMN Adhesion” value (10^-6 M, donor 100, peptide frozen) was -68%. Further, the “Percent Change in PMN Adhesion” value (10^-6 M, donor 272, peptide fresh (second line of donor 272 fresh, last line of table)) was -41%. Under “10^-6 M, donor 475, peptide fresh”, the “Percent Change in PMN Adhesion” value is recorded as -76%. Moreover, the “Average % Change of PMN Adhesion” value (10^-7 M) is on record as “+3%”. In addition, the “Percent Change in PMN Adhesion” value (10^-7 M, donor 121, peptide frozen) is “+3%”. In addition, where the note is “10^-7 M, donor 155, peptide fresh”, the “Percent Change in PMN Adhesion” value is on record as “+1%”. Besides, the “Percent Change in PMN Adhesion” value (10^-7 M, donor 272, peptide fresh (second line of donor 272 fresh, last line of table)) is listed as “+42%”. Besides, the “Percent Change in PMN Adhesion” value (10^-7 M, donor 323, peptide fresh, or 4° for 2 wks) is recorded as “+45%”. In addition, the “Percent Change in PMN Adhesion” value (10^-7 M, donor 593, peptide fresh, or 4° for 2 wks) is “+14%”. In addition, the “Average % Change of PMN Adhesion” value (10^-8 M) is -12%. For the same sequence, the “Percent Change in PMN Adhesion” value (10^-8 M, donor 178, peptide fresh) is on record as “+2%”. Further, the “effect of freezing and thawing the peptide on its activity in the adhesion assay” value (PMNs from donors 100 and 272) is recorded as “does not significantly effect its activity”.
